Experimental data reported in ChEMBL document CHEMBL1201862, “PubChem BioAssay data set” (2004).
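Five concentrations, 48 hours, 96-well plates. GI50 is the concentration that inhibits growth by half.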 Activity calls are given as the source filed them. Rule as the data show it: active = GI50 up to about 1.1 µM and inactive = higher.

What was measured:
Assay in all cases: inhibition of tumour cell growth, NCI panel, 48 h
NCI-H226 = tested on: NCI-H226
CCRF-CEM = tested on: CCRF-CEM
RPMI-8226 = tested on: RPMI-8226
EKVX = tested on: EKVX
UACC-62 = tested on: UACC-62
CAKI-1 = tested on: CAKI-1
SR = tested on: SR
LOX IMVI = tested on: LOX IMVI
UO-31 = tested on: UO-31
SN12C = tested on: SN12C
OVCAR-4 = tested on: OVCAR-4
SF-295 = tested on: SF-295
TK-10 = tested on: TK-10
HCC 2998 = tested on: HCC 2998
MCF7 = tested on: MCF7
Hs-578T = tested on: Hs-578T
HL-60 = tested on: HL-60
SF-268 = tested on: SF-268
HT-29 = tested on: HT-29
T47D = tested on: T47D

**Q.** Which results are given for CC(C)(C)OC(=O)[C@@H]1CCC(=S)N1Cc1ccccc1?
**A.** GI50 (NCI-H226): 60.1 µM (inactive); GI50 (CCRF-CEM): > 100 µM (inactive); GI50 (RPMI-8226): > 100 µM (inactive); GI50 (EKVX): 92 µM (inactive); GI50 (UACC-62): > 100 µM (inactive); GI50 (CAKI-1): > 100 µM (inactive); GI50 (SR): 76.9 µM (inactive); GI50 (LOX IMVI): > 100 µM (inactive); GI50 (UO-31): 78.2 µM (inactive); GI50 (SN12C): > 100 µM (inactive); GI50 (OVCAR-4): > 100 µM (inactive); GI50 (SF-295): > 100 µM (inactive); GI50 (TK-10): > 100 µM (inactive); GI50 (HCC 2998): > 100 µM (inactive); GI50 (MCF7): > 100 µM (inactive)

**Q.** With COc1cccc(/N=C/c2cc3cc(Br)ccc3nc2Cl)c1 as the compound, how does the GI50 (NCI-H226) read?
**A.** Its GI50 is 5.58 µM (inactive).

**Q.** And the GI50 (CCRF-CEM)?
**A.** The GI50 was 4.78 µM (inactive).

**Q.** And the GI50 (RPMI-8226)?
**A.** Its GI50 is 2.96 µM (inactive).

**Q.** What about the GI50 (EKVX) of the same compound?
**A.** Its GI50 is > 50 µM (inactive).

**Q.** And the GI50 (CAKI-1)?
**A.** Its GI50 is 7.06 µM (inactive).

**Q.** And the GI50 (SR)?
**A.** Its GI50 is 1.85 µM (inactive).

**Q.** And the GI50 (LOX IMVI)?
**A.** Its GI50 is 18.9 µM (inactive).

**Q.** And the GI50 (UO-31)?
**A.** Its GI50 is 12.5 µM (inactive).

**Q.** And the GI50 (Hs-578T)?
**A.** Its GI50 is 40.6 µM (inactive).

**Q.** What about the GI50 (SN12C) of the same compound?
**A.** Its GI50 is 15.5 µM (inactive).

**Q.** And the GI50 (OVCAR-4)?
**A.** The GI50 was 0.736 µM (active).

**Q.** And the GI50 (HL-60)?
**A.** The GI50 was 10 µM (inactive).

**Q.** What about the GI50 (SF-268) of the same compound?
**A.** The GI50 was 20.1 µM (inactive).

**Q.** And the GI50 (SF-295)?
**A.** Its GI50 is 39.4 µM (inactive).

**Q.** And the GI50 (HCC 2998)?
**A.** The GI50 was 15 µM (inactive).

**Q.** And the GI50 (HT-29)?
**A.** Its GI50 is 27 µM (inactive).

**Q.** What about the GI50 (T47D) of the same compound?
**A.** Its GI50 is 10.5 µM (inactive).

**Q.** What does the source list for CCCCN(CC)C(=O)C1=C(C)NC(C)=C(C(=O)N(CC)CCCC)C1?
**A.** GI50 (NCI-H226): 88.9 µM (inactive); GI50 (EKVX): > 100 µM (inactive); GI50 (UACC-62): 57.7 µM (inactive); GI50 (CAKI-1): > 100 µM (inactive); GI50 (LOX IMVI): > 100 µM (inactive); GI50 (UO-31): > 100 µM (inactive); GI50 (SN12C): > 100 µM (inactive); GI50 (OVCAR-4): > 100 µM (inactive); GI50 (HL-60): 89.1 µM (inactive); GI50 (SF-268): > 100 µM (inactive); GI50 (SF-295): > 100 µM (inactive); GI50 (TK-10): > 100 µM (inactive); GI50 (HCC 2998): > 100 µM (inactive); GI50 (MCF7): > 100 µM (inactive); GI50 (HT-29): > 100 µM (inactive); GI50 (T47D): 62.1 µM (inactive)

**Q.** Which GI50 (NCI-H226) does the source give for O=c1c(Cl)c(Cl)cnn1CCc1ccncc1 here?
**A.** The GI50 was 29.4 µM (inactive).

**Q.** And the GI50 (CCRF-CEM)?
**A.** The GI50 was 19.1 µM (inactive).

**Q.** And the GI50 (RPMI-8226)?
**A.** The GI50 was 36.6 µM (inactive).

**Q.** And the GI50 (EKVX)?
**A.** Its GI50 is 19.6 µM (inactive).

**Q.** What about the GI50 (UACC-62) of the same compound?
**A.** The GI50 was 20.8 µM (inactive).

**Q.** And the GI50 (CAKI-1)?
**A.** The GI50 was 1.98 µM (inactive).

**Q.** And the GI50 (SR)?
**A.** The GI50 was 20.8 µM (inactive).

**Q.** And the GI50 (LOX IMVI)?
**A.** The GI50 was 17.8 µM (inactive).

**Q.** What about the GI50 (UO-31) of the same compound?
**A.** The GI50 was 20.8 µM (inactive).

**Q.** And the GI50 (SN12C)?
**A.** Its GI50 is 18 µM (inactive).

**Q.** What about the GI50 (OVCAR-4) of the same compound?
**A.** The GI50 was 18.6 µM (inactive).

**Q.** What about the GI50 (HL-60) of the same compound?
**A.** Its GI50 is 21.8 µM (inactive).

**Q.** And the GI50 (SF-268)?
**A.** The GI50 was 20.6 µM (inactive).

**Q.** What about the GI50 (SF-295) of the same compound?
**A.** The GI50 was 29.5 µM (inactive).

**Q.** What about the GI50 (TK-10) of the same compound?
**A.** The GI50 was 47.5 µM (inactive).

**Q.** And the GI50 (HCC 2998)?
**A.** Its GI50 is 14.5 µM (inactive).

**Q.** And the GI50 (HT-29)?
**A.** The GI50 was 16.6 µM (inactive).

**Q.** For O=C(N/N=C1\C(=O)Nc2c(Cl)cc(Cl)cc21)C(=O)Nc1cccc(C(F)(F)F)c1, which GI50 (NCI-H226) is on record?
**A.** Its GI50 is > 100 µM (inactive).

**Q.** What about the GI50 (CCRF-CEM) of the same compound?
**A.** Its GI50 is > 100 µM (inactive).

**Q.** What about the GI50 (EKVX) of the same compound?
**A.** Its GI50 is > 100 µM (inactive).

**Q.** And the GI50 (UACC-62)?
**A.** The GI50 was > 100 µM (inactive).

**Q.** What about the GI50 (CAKI-1) of the same compound?
**A.** The GI50 was > 100 µM (inactive).

**Q.** What about the GI50 (SR) of the same compound?
**A.** Its GI50 is 34.4 µM (inactive).

**Q.** What about the GI50 (LOX IMVI) of the same compound?
**A.** Its GI50 is > 100 µM (inactive).

**Q.** And the GI50 (UO-31)?
**A.** Its GI50 is > 100 µM (inactive).

**Q.** And the GI50 (Hs-578T)?
**A.** The GI50 was > 100 µM (inactive).

**Q.** What about the GI50 (SN12C) of the same compound?
**A.** The GI50 was > 100 µM (inactive).

**Q.** What about the GI50 (OVCAR-4) of the same compound?
**A.** Its GI50 is > 100 µM (inactive).

**Q.** What about the GI50 (HL-60) of the same compound?
**A.** Its GI50 is 62.8 µM (inactive).

**Q.** And the GI50 (SF-295)?
**A.** The GI50 was > 100 µM (inactive).

**Q.** What about the GI50 (TK-10) of the same compound?
**A.** Its GI50 is > 100 µM (inactive).

**Q.** What about the GI50 (HCC 2998) of the same compound?
**A.** The GI50 was > 100 µM (inactive).

**Q.** What about the GI50 (MCF7) of the same compound?
**A.** The GI50 was > 100 µM (inactive).

**Q.** And the GI50 (HT-29)?
**A.** Its GI50 is > 100 µM (inactive).

**Q.** Cn1c(=O)n2n(c1=O)C1C(=CC2)C2C=CC1n1c(=O)n(C)c(=O)n12 (stereo not drawn) was tested. Which GI50 (NCI-H226) did it give?
**A.** Its GI50 is > 100 µM (inactive).

**Q.** What about the GI50 (CCRF-CEM) of the same compound?
**A.** Its GI50 is > 100 µM (inactive).

**Q.** And the GI50 (RPMI-8226)?
**A.** Its GI50 is > 100 µM (inactive).

**Q.** What about the GI50 (EKVX) of the same compound?
**A.** Its GI50 is > 100 µM (inactive).

**Q.** And the GI50 (UACC-62)?
**A.** Its GI50 is > 100 µM (inactive).

**Q.** What about the GI50 (CAKI-1) of the same compound?
**A.** Its GI50 is > 100 µM (inactive).

**Q.** What about the GI50 (LOX IMVI) of the same compound?
**A.** The GI50 was > 100 µM (inactive).

**Q.** What about the GI50 (UO-31) of the same compound?
**A.** The GI50 was > 100 µM (inactive).

**Q.** And the GI50 (Hs-578T)?
**A.** The GI50 was > 100 µM (inactive).

**Q.** And the GI50 (SN12C)?
**A.** Its GI50 is > 100 µM (inactive).

**Q.** And the GI50 (HL-60)?
**A.** Its GI50 is > 100 µM (inactive).

**Q.** And the GI50 (SF-268)?
**A.** Its GI50 is > 100 µM (inactive).

**Q.** What about the GI50 (SF-295) of the same compound?
**A.** Its GI50 is > 100 µM (inactive).

**Q.** And the GI50 (TK-10)?
**A.** The GI50 was > 100 µM (inactive).

**Q.** And the GI50 (HT-29)?
**A.** Its GI50 is > 100 µM (inactive).

**Q.** And the GI50 (T47D)?
**A.** Its GI50 is > 100 µM (inactive).

**Q.** Which results are given for CN(C)c1ccc(/C=C2\C[C@H]3[C@@H]4CCc5cc(OCCN6CCCC6)ccc5[C@H]4CC[C@]3(C)C2=O)cc1?
**A.** GI50 (NCI-H226): 1.82 µM (inactive); GI50 (CCRF-CEM): 1.13 µM (inactive); GI50 (RPMI-8226): 1.75 µM (inactive); GI50 (EKVX): 2.2 µM (inactive); GI50 (UACC-62): 1.9 µM (inactive); GI50 (CAKI-1): 1.45 µM (inactive); GI50 (SR): 0.333 µM (active); GI50 (UO-31): 1.54 µM (inactive); GI50 (SN12C): 1.62 µM (inactive); GI50 (OVCAR-4): 1.63 µM (inactive); GI50 (SF-295): 1.86 µM (inactive); GI50 (TK-10): 1.64 µM (inactive); GI50 (HCC 2998): 1.53 µM (inactive); GI50 (MCF7): 1.52 µM (inactive); GI50 (HT-29): 0.288 µM (active); GI50 (T47D): 1.77 µM (inactive)

**Q.** What does the source list for Cc1ccc(N(C)S(=O)(=O)c2ccc([N+](=O)[O-])cc2)cc1?
**A.** GI50 (NCI-H226): 48.9 µM (inactive); GI50 (CCRF-CEM): > 100 µM (inactive); GI50 (RPMI-8226): 59 µM (inactive); GI50 (EKVX): > 100 µM (inactive); GI50 (UACC-62): 52.5 µM (inactive); GI50 (CAKI-1): > 100 µM (inactive); GI50 (SR): 78.2 µM (inactive); GI50 (LOX IMVI): > 100 µM (inactive); GI50 (UO-31): 44.3 µM (inactive); GI50 (Hs-578T): > 100 µM (inactive); GI50 (SN12C): > 100 µM (inactive); GI50 (OVCAR-4): > 100 µM (inactive); GI50 (HL-60): 54.6 µM (inactive); GI50 (SF-268): > 100 µM (inactive); GI50 (SF-295): 92.3 µM (inactive); GI50 (TK-10): > 100 µM (inactive); GI50 (HCC 2998): 93.5 µM (inactive); GI50 (MCF7): > 100 µM (inactive); GI50 (HT-29): 74.6 µM (inactive)
